# Assay results published in US10266526B2, “Substituted 1,2,3-triazoles as SMYD inhibitors for treating cancer” (EPIZYME, INC., priority 2014, dated 2019).
# Like-named read-outs stand apart in the source and are kept apart here.
# Target: SMYD3 (Homo sapiens (Human), UniProt Q9H7B4)
# Assay: SMYD3 biochemical assay (SMYD3 enzyme assay on MEKK2 protein substrate, 3H-SAM scintillation proximity assay)
# In short: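 Detection used scintillation proximity beads to capture ³H-methylated GST-MEKK2 after quench with 100 uM final cold SAM. The reaction was started by SAM/MEKK2 addition after a 30 min RT compound–enzyme preincubation. Enzyme was tag-free full-length human SMYD3 from E. coli, in buffer of 25 mM Tris-Cl pH 8.0, 1 mM TCEP, 0.005% BSG, 0.005% Tween 20.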
# [1] = read-out: SMYD3 Biochem IC50 (μM)*
# [2] = Table 1A, average of n = 1 to n = 50, read-out: SMYD3 Biochem IC50
# Sequence of SMYD3 (Q9H7B4 whole entry): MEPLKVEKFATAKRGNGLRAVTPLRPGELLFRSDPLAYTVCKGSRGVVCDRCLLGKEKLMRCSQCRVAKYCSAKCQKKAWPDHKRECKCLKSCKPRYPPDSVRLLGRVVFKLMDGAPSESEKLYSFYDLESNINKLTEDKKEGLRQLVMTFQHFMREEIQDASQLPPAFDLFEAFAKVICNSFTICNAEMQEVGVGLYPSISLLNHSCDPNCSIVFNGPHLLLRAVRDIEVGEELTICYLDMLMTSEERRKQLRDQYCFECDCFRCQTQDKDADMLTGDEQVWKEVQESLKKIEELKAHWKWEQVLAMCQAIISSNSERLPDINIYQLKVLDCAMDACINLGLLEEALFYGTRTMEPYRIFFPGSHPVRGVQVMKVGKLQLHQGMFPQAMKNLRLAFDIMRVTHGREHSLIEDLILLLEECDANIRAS
SMILES,IC50 (read-out: SMYD3 Biochem IC50),also measured
"CC(NC(=O)Cc1cncnc1)C1CCN(C(=O)[C@H](C)N)CC1 (stereo partly drawn) [compound 315, N-(1-(1-(L-alanyl)piperidin-4-yl)ethyl)-2-(pyrimidin-5-yl)acetamide]",> 100 µM,–
"CC(=O)c1c[nH]c(C(=O)NC2CCNCC2)c1 [compound 65, 4-acetyl-N-(piperidin-4-yl)-1H-pyrrole-2-carboxamide]",–,IC50 [1]: 45.8 µM
"COc1cccc2[nH]cc(C(=O)NC(C)C3CCN(C(=O)[C@H](C)N)CC3)c12 (stereo partly drawn) [compound 370, N-(1-(1-(L-alanyl)piperidin-4-yl)ethyl)-4-methoxy-1H-indole-3-carboxamide]",> 100 µM,–
"NCCC(=O)N[C@H]1CC[C@H](NC(=O)c2cn(CC(N)=O)nn2)CC1 [compound 516, 1-(2-amino-2-oxoethyl)-N-((1r,4r)-4-(3-aminopropanamido)cyclohexyl)-1H-1,2,3-triazole-4-carboxamide]",> 50 µM,–
"CC(NC(=O)[C@H]1Cc2ccccc2CN1)C1CCN(C(=O)[C@H](C)N)CC1 (stereo partly drawn) [compound 306, (3R)-N-(1-(1-(L-alanyl)piperidin-4-yl)ethyl)-1,2,3,4-tetrahydroisoquinoline-3-carboxamide]",48.1 µM,–
"CC(NC(=O)c1ccc2ccc(O)nc2c1)C1CCN(C(=O)[C@H](C)N)CC1 (stereo partly drawn) [compound 120, N-(1-(1-(L-alanyl)piperidin-4-yl)ethyl)-2-hydroxyquinoline-7-carboxamide]",–,IC50 [1]: 86.9 µM
"CN(C(=O)CCN)C1CCC(NC(=O)c2ccc3c(c2)CC(=O)N3)CC1 (stereo not drawn) [compound 178, N-(4-(3-amino-N-methylpropanamido)cyclohexyl)-2-oxoindoline-5-carboxamide]",–,IC50 [1]: 3.4 µM
"CC(NC(=O)c1ccnc(N)c1)C1CCN(C(=O)[C@H](C)N)CC1 (stereo partly drawn) [compound 187, N-(1-(1-(L-alanyl)piperidin-4-yl)ethyl)-2-aminoisonicotinamide]",> 100 µM,–
"CC(NC(=O)c1ccc(N2CCCC2)cc1)C1CCN(C(=O)[C@H](C)N)CC1 (stereo partly drawn) [compound 227, N-(1-(1-(L-alanyl)piperidin-4-yl)ethyl)-4-(pyrrolidin-1-yl)benzamide]",29.2 µM,–
"CC(=O)Nc1ccc(S(=O)(=O)N2CCC(NC(=O)C3CCN(CC4CC4)CC3)CC2)cc1 [compound 12, N-(1-((4-acetamidophenyl)sulfonyl)piperidin-4-yl)-1-(cyclopropylmethyl)piperidine-4-carboxamide]",–,IC50 [1]: 45.9 µM
"N[C@H]1CC[C@H](NC(=O)c2n[nH]c(Cl)n2)CC1 [compound 541, N-((1r,4r)-4-aminocyclohexyl)-5-chloro-1H-1,2,4-triazole-3-carboxamide]",–,IC50 [2]: > 50 µM
"CC(NC(=O)c1ccc2nc[nH]c2c1)C1CCN(C(=O)[C@H](C)N)CC1 (stereo partly drawn) [compound 193, N-(1-(1-(L-alanyl)piperidin-4-yl)ethyl)-1H-benzo[d]imidazole-6-carboxamide]",> 100 µM,–
"CC(NC(=O)c1nc2ccccc2s1)C1CCN(C(=O)[C@H](C)N)CC1 (stereo partly drawn) [compound 395, N-(1-(1-(L-alanyl)piperidin-4-yl)ethyl)benzo[d]thiazole-2-carboxamide]",> 100 µM,–
"NCC(=O)N[C@H]1CC[C@H](NC(=O)c2ccc3c(c2)CC(=O)N3)CC1 [compound 174, N-((1r,4r)-4-(2-aminoacetamido)cyclohexyl)-2-oxoindoline-5-carboxamide]",–,IC50 [1]: 0.63 µM
"CCS(=O)(=O)C(C)C(=O)N[C@H]1CC[C@H](N)CC1 (stereo partly drawn) [compound 78, N-((1r,4r)-4-aminocyclohexyl)-2-(ethylsulfonyl)propanamide]",–,IC50 [1]: 35.2 µM
"CC(NC(=O)c1ccccn1)C1CCN(C(=O)[C@H](C)N)CC1 (stereo partly drawn) [compound 296, N-(1-(1-(L-alanyl)piperidin-4-yl)ethyl)picolinamide]",> 100 µM,–
"NCCC(=O)N[C@H]1CC[C@H](NC(=O)Cc2cc(F)cc(F)c2)CC1 [compound 443, 3-amino-N-((1r,4r)-4-(2-(3,5-difluorophenyl)acetamido)cyclohexyl)propanamide]",> 100 µM,–
"CC(NC(=O)c1cccc(S(C)(=O)=O)c1)C1CCN(C(=O)[C@H](C)N)CC1 (stereo partly drawn) [compound 149, N-(1-(1-(L-alanyl)piperidin-4-yl)ethyl)-3-(methylsulfonyl)benzamide]",–,IC50 [1]: > 100 µM
"N[C@H]1CC[C@H](C(=O)N2CCC(NC(=O)c3nnc[nH]3)CC2)CC1 [compound 555, N-(1-((1r,4r)-4-aminocyclohexane-1-carbonyl)piperidin-4-yl)-4H-1,2,4-triazole-3-carboxamide]",–,IC50 [2]: > 50 µM
"CCc1ccc(C(=O)N[C@H]2CC[C@H](N)CC2)s1 [compound 54, N-((1r,4r)-4-aminocyclohexyl)-5-ethylthiophene-2-carboxamide]",–,IC50 [1]: 49.9 µM
"O=C(NC1CCNCC1)c1ccc2ncc(=O)[nH]c2c1 [compound 46, 3-oxo-N-(piperidin-4-yl)-3,4-dihydroquinoxaline-6-carboxamide]",–,IC50 [1]: 63.7 µM
"CC(NC(=O)CCCn1ccnc1)C1CCN(C(=O)[C@H](C)N)CC1 (stereo partly drawn) [compound 241, N-(1-(1-(L-alanyl)piperidin-4-yl)ethyl)-4-(1H-imidazol-1-yl)butanamide]",82.9 µM,–

# Further lines, with some results ahead:
IC50 (read-out: SMYD3 Biochem IC50),SMILES,also measured
> 100 µM,"NCCC(=O)N[C@H]1CC[C@H](NC(=O)c2cccc3c2CC(=O)N3)CC1 [compound 430, N-((1r,4r)-4-(3-aminopropanamido)cyclohexyl)-2-oxoindoline-4-carboxamide]",–
> 100 µM,"Cc1cnccc1C(=O)N[C@H]1CC[C@H](NC(=O)CCN)CC1 [compound 379, N-((1r,4r)-4-(3-aminopropanamido)cyclohexyl)-3-methylisonicotinamide]",–
> 100 µM,"Cc1cc(C(=O)N[C@H]2CC[C@H](NC(=O)CCN)CC2)ccn1 [compound 393, N-((1r,4r)-4-(3-aminopropanamido)cyclohexyl)-2-methylisonicotinamide]",–
> 100 µM,"NCCC(=O)N[C@H]1CC[C@H](NC(=O)c2cnccc2N)CC1 [compound 288, 4-amino-N-((1r,4r)-4-(3-aminopropanamido)cyclohexyl)nicotinamide]",–
> 100 µM,"N[C@H]1CC[C@H](NC(=O)c2cc(O)nc3ccccc23)CC1 [compound 201, N-((1r,4r)-4-aminocyclohexyl)-2-hydroxyquinoline-4-carboxamide]",–
> 100 µM,"Cc1cc(C)c(C(=O)N[C@H]2CC[C@H](N)CC2)c(=O)[nH]1 [compound 324, N-((1r,4r)-4-aminocyclohexyl)-4,6-dimethyl-2-oxo-1,2-dihydropyridine-3-carboxamide]",–
> 100 µM,"Cc1nscc1C(=O)N[C@H]1CC[C@H](N)CC1 [compound 348, N-((1r,4r)-4-aminocyclohexyl)-3-methylisothiazole-4-carboxamide]",–
22 µM,"NCCC(=O)N[C@H]1CC[C@H](NC(=O)c2cc3ccccc3nc2O)CC1 [compound 456, N-((1r,4r)-4-(3-aminopropanamido)cyclohexyl)-2-hydroxyquinoline-3-carboxamide]",–
> 100 µM,"Nc1ccncc1C(=O)N[C@H]1CC[C@H](N)CC1 [compound 289, 4-amino-N-((1r,4r)-4-aminocyclohexyl)nicotinamide]",–
27.4 µM,"Cc1cnc(C(=O)N[C@H]2CC[C@H](NC(=O)CCN)CC2)s1 [compound 397, N-((1r,4r)-4-(3-aminopropanamido)cyclohexyl)-5-methylthiazole-2-carboxamide]",–
> 100 µM,"NCCC(=O)N[C@H]1CC[C@H](NC(=O)c2cccc3[nH]ccc23)CC1 [compound 290, N-((1r,4r)-4-(3-aminopropanamido)cyclohexyl)-1H-indole-4-carboxamide]",–
